Experimental findings from US20250127790A1, “COMBINATION THERAPY USING VPS34 INHIBITORS” (Deciphera Pharmaceuticals, LLC, priority 2021, published 2025) are described below.

Molecules are shown by their SMILES.

Assay [1] concerns A-498 renal cell carcinoma cells. Nature of the assay: qRT-PCR, combination with STING agonist ADU-S100, A-498 cells. In kind it is cell-based, Human. To be noted: 2 μM Compound 1 or 2, 50 μM ADU-S100, 24 h. On the procedure: A-498 cells were grown in Minimal Essential Medium containing 10% fetal bovine serum. Cells were then incubated for 2 days at 37 degrees Celsius, 5% CO2, and 95% humidity. A-498 cells were treated with DMSO control, 2 μM Compound 1 or 2 μM Compound 2 in combination with 50 μM STING agonist ADU-S100 for 24 h. Cells were washed with PBS and RNA was isolated using the PureLink RNA kit (#12183018A, Thermo Fisher Scientific) according to the manufacturer's protocol. Genomic DNA was removed using DNA-binding columns (RNeasy plus kit, #74134, Qiagen) and/or DNase treatment (#12185010, Thermo Fisher Scientific). RNA was quantified using NanoDrop (Thermo Fisher Scientific) and 50 ng/μL RNA was used for cDNA synthesis with SuperScript IV VILO Master Mix (#11756050, Thermo Fisher Scientific). Quantitative RT-PCR (qRT-PCR) was run with diluted cDNA (1:25 or 1:12.5), PowerUp SYBR Green Master Mix (#A25741, Thermo Fisher Scientific), and 200 nM primers (see below) on a CFX Connect RT-PCR system (BioRad). Data was analyzed using the ΔΔCT method. Results are mean±SEM of three independent experiments.
On the technique in general: Real-time PCR tracks product formation cycle by cycle.

For assay [2], the system named is 786-O renal cell carcinoma cells. Nature of the assay: qRT-PCR, combination with STING agonist ADU-S100, 786-O cells. In kind it is cell-based, Human. The settings on record: 2 μM Compound 1 or 2, 50 μM ADU-S100, 24 h. Here is the method: 786-O cells were grown in RPMI-1640 medium containing 10% fetal bovine serum. Cells were then incubated for 2 days at 37 degrees Celsius, 5% CO2, and 95% humidity. […] cells were treated with DMSO control, 2 μM Compound 1 or 2 μM Compound 2 in combination with 50 μM STING agonist ADU-S100 for 24 h. Cells were washed with PBS and RNA was isolated using the PureLink RNA kit (#12183018A, Thermo Fisher Scientific) according to the manufacturer's protocol. Genomic DNA was removed using DNA-binding columns (RNeasy plus kit, #74134, Qiagen) and/or DNase treatment (#12185010, Thermo Fisher Scientific). RNA was quantified using NanoDrop (Thermo Fisher Scientific) and 50 ng/μL RNA was used for cDNA synthesis with SuperScript IV VILO Master Mix (#11756050, Thermo Fisher Scientific). Quantitative RT-PCR (qRT-PCR) was run with diluted cDNA (1:25 or 1:12.5), PowerUp SYBR Green Master Mix (#A25741, Thermo Fisher Scientific), and 200 nM primers (see below) on a CFX Connect RT-PCR system (BioRad). Data was analyzed using the ΔΔCT method. Results are mean±SEM of three independent experiments.

The subject of assay [3] is A-498 renal cell carcinoma cells. Nature of the assay: Cytokine secretion assay, combination with ADU-S100, A-498 cells. Type of assay: cell-based, human. The settings on record: 2 μM Compound 1 or 2, 50 μM ADU-S100, 24 h. On the procedure:
(§1) A-498 cells were treated with DMSO control, 2 μM Compound 1 or 2 μM Compound 2 in combination with 50 μM STING agonist ADU-S100 for 24 h. Cell culture medium was centrifuged at 1600 rpm for 10 min at 4° C. and obtained supernatant stored at −80° C. Cytokine levels were quantified using following Meso Scale Discovery (MSD) assays: human R-PLEX RANTES/CCL5 (#F21ZN), U-PLEX CXCL10/IP-10 (#K151UFK). Assays were run on the SECTOR Quickplex Imager and analyzed using Discovery Workbench version 4.0 (MSD). Low concentrations of human IFNβ were determined using High Sensitivity IFN Beta ELISA Kit, (PBL assay science, #41415-1).

In assay [4] the test system is 786-O renal cell carcinoma cells. Kind of assay: Cytokine secretion assay, combination with ADU-S100, 786-O cells. In kind it is cell-based, human. The settings on record: 2 μM Compound 1 or 2, 50 μM ADU-S100, 24 h. On the procedure: as §1, with “786-O” for “A-498”
A further assay concerns B16-F10 melanoma cells. Nature of the assay: qRT-PCR, combination with ADU-S100, B16-F10 cells. Type of assay: cell-based, Murine. To be noted: for IFNB1 mRNA expression: 2 μM Compound 1 or 2, 10 μM ADU-S100, 4 h; for CCL5 mRNA expression / CXCL10 mRNA expression: 2 μM Compound 1 or 2, 10 μM ADU-S100, 24 h. Here is the method:
B16-F10 cells were grown in DMEM/F12 medium containing 10% fetal bovine serum. Cells were then incubated for 2 days at 37 degrees Celsius, 5% CO2, and 95% humidity. […] cells were reversely transfected with scrambled siRNA control (siSCR) or siRNA targeting STING (siSTING). […] Cells were washed with PBS and RNA was isolated using the PureLink RNA kit (#12183018A, Thermo Fisher Scientific) according to the manufacturer's protocol. Genomic DNA was removed using DNA-binding columns (RNeasy plus kit, #74134, Qiagen) and/or DNase treatment (#12185010, Thermo Fisher Scientific). RNA was quantified using NanoDrop (Thermo Fisher Scientific) and 50 ng/μL RNA was used for cDNA synthesis with SuperScript IV VILO Master Mix (#11756050, Thermo Fisher Scientific). Quantitative RT-PCR (qRT-PCR) was run with diluted cDNA (1:25 or 1:12.5), PowerUp SYBR Green Master Mix (#A25741, Thermo Fisher Scientific), and 200 nM primers (see below) on a CFX Connect RT-PCR system (BioRad). Data was analyzed using the ΔΔCT method. Results are mean±SEM of three independent experiments.

Consider `Nc1ncnc2c1ncn2[C@@H]1O[C@@H]2COP(=O)([S-])O[C@@H]3[C@H](O)[C@@H](COP([O-])(=S)O[C@H]2[C@H]1O)O[C@H]3n1cnc2c(N)ncnc21.[Na+].[Na+]` (stereo partly drawn) [ADU-S100, reference compound], for which, in assay [1], the “CCL5 mRNA expression” value was “increased”, the “CXCL10 mRNA expression” value is recorded as “increased” and the “IFNB1 mRNA expression” value is “no effect”. Further, in assay [2], the “CCL5 mRNA expression” value is given as “increased”, the “CXCL10 mRNA expression” value is reported as “no effect” and the “IFNB1 mRNA expression” value is on record as “no effect”. Further, in assay [3], the CCL5 secretion entry is “mildly increased”, the CXCL10 secretion result was “mildly increased” and the IFNβ secretion entry is reported as “no effect”. Further, in assay [4], the CCL5 secretion result is “significantly increased”, the CXCL10 secretion entry is listed as “significantly increased” and the IFNβ secretion result is “mild effect”. Also, in the assay on B16-F10 melanoma cells, the “IFNB1 mRNA expression” value is “did not increase”, the “CCL5 mRNA expression” value is “did increase” and the “CXCL10 mRNA expression” value is “did increase”.

`C[C@@H]1COCCN1c1cc(N2CCCC[C@@H]2C(F)(F)F)[nH]c(=O)c1` [Compound 1, 4-((R)-3-methylmorpholino)-6-((R)-2-(trifluoromethyl)piperidin-1-yl)pyridin-2(1H)-one]: in assay [1], the “CCL5 mRNA expression” value was “mildly increased”, the “CXCL10 mRNA expression” value was “mildly increased” and the “IFNB1 mRNA expression” value is given as “mildly increased”. In assay [2], the “CCL5 mRNA expression” value was “increased”, the “CXCL10 mRNA expression” value was “increased” and the “IFNB1 mRNA expression” value is on record as “increased”. In addition, in assay [3], the CCL5 secretion result is on record as “increased”, the CXCL10 secretion result was “increased” and the IFNβ secretion entry was “increased”. In assay [4], the CCL5 secretion entry is “increased”, the CXCL10 secretion entry is given as “increased” and the IFNβ secretion result was “increased”. Besides, in the assay with B16-F10 melanoma cells, the “IFNB1 mRNA expression” value is reported as “did not increase”, the “CCL5 mRNA expression” value is reported as “mildly increase” and the “CXCL10 mRNA expression” value is listed as “mildly increase”.

For `C[C@@H]1COCCN1c1cc(=O)n2c(n1)N(Cc1cncc(Cl)c1)[C@H](C(F)(F)F)CC2` [Compound 2, (S)-9-((5-chloropyridin-3-yl)methyl)-2-((R)-3-methylmorpholino)-8-(trifluoromethyl)-6,7,8,9-tetrahydro-4H-pyrimido[1,2-a]pyrimidin-4-one], in assay [1], the “CCL5 mRNA expression” value is recorded as “mildly increased”, the “CXCL10 mRNA expression” value is recorded as “mildly increased” and the “IFNB1 mRNA expression” value is “mildly increased”. In assay [2], the “CCL5 mRNA expression” value is given as “increased”, the “CXCL10 mRNA expression” value is recorded as “increased” and the “IFNB1 mRNA expression” value is listed as “increased”. Also, in assay [3], the CCL5 secretion entry is on record as “increased”, the CXCL10 secretion entry is “increased” and the IFNβ secretion result was “increased”. In assay [4], the CCL5 secretion result is “increased”, the CXCL10 secretion entry is reported as “increased” and the IFNβ secretion result is recorded as “increased”. In addition, in the assay on B16-F10 melanoma cells, the “IFNB1 mRNA expression” value is given as “did not increase”, the “CCL5 mRNA expression” value was “mildly increase” and the “CXCL10 mRNA expression” value is reported as “mildly increase”.
